Reference: patent publication US20240239854A1, “ANTIMICROBIAL PEPTIDES AND MODIFICATIONS THEREOF” (Donald Danforth Plant Science Center, priority 2022, published 2024)
No end group written: not given here.

Experiments:
Assay type in all cases: cell-based
Botrytis cinerea T4 = test system: Botrytis cinerea T4
[1] = test system: Fusarium graminearum PH-1; conditions: for F. graminearum PH-1 MIC Day1: MIC Day 1, 96-well plate, resazurin cell viability
[2] = test system: Zymoseptoria tritici IPO323

Row | Substance | B. cinerea T4 MIC Day1 (Botrytis cinerea T4) | F. graminearum PH-1 MIC Day1 [1] | Z. tritici IPO323 MIC Day 1 [2] | Z. tritici IPO323 MIC Day 7 [2] | Z. tritici IPO323 MIC Day 14 [2] | MIC, in-vitro antifungal activity against B. cinerea (Botrytis cinerea T4; 48 hours) | MIC, in-vitro antifungal activity against F. graminearum ([1]; F. graminearum PH-1, 48 hours)
1 | PD102.1.1: Cajanus cajan wild-type defensin SEQ ID NO: 628 with N-terminal alanine, expressed in Pichia pastoris (AVCSKPSTYFFGPCVRRSTCRRACSHENYPDGKCSRFLGKCICYKPCTT; cysteine pairing not given here; also: N-terminal alanine added, unclear whether it is the first A of the chain) | 1.25 µM | 1.5 µM | 1 µM | 1.5 µM | 2.5 µM |  | 
2 | PD103.1.1: Eucalyptus grandis wild-type defensin SEQ ID NO: 633 with N-terminal alanine, expressed in Pichia pastoris (ATCRKPSMYFSGACFSRTNCQKACNREDWPNGKCLVGFKCFCQRPC; cysteine pairing not given here; also: N-terminal alanine added, unclear whether it is the first A of the chain; listed as Eucalyptus grandis) | 1.75 µM | 2.5 µM | 1.25 µM | 1.25 µM | 3 µM |  | 
3 | PD104.1.1: Eucalyptus grandis wild-type defensin SEQ ID NO: 637 with N-terminal alanine, expressed in Pichia pastoris (AICKKPSKFFKGACGRDADCEKACDQENWPGGVCVPFLRCECQRSC; cysteine pairing not given here; also: N-terminal alanine added, unclear whether it is the first A of the chain; listed as Eucalyptus grandis) | >12 µM | >12 µM | >12 µM | >12 µM | >12 µM |  | 
4 | PD106.1.1: Eucalyptus grandis wild-type defensin SEQ ID NO: 645 with N-terminal alanine, expressed in Pichia pastoris (ANCAKPSKFYRGPCFNSISVKPCTQRCSQENWPIGVCTKDLRCECQRPC; cysteine pairing not given here; also: N-terminal alanine added, unclear whether it is the first A of the chain; listed as Eucalyptus grandis) | 1 µM | 0.75 µM | 0.375 µM | 1.5 µM | 2.5 µM | 1 µM | 0.75 µM
5 | PD108.1.1: Fragaria x anannasa wild-type defensin SEQ ID NO: 653 with N-terminal alanine, expressed in Pichia pastoris (KTCESPSAKFEGPCIMGSNCALTCQKEGHDGGFCRDFWLPKCFCTKPC; N-terminal alanine added; Fragaria X ananassa) | >12 µM | >12 µM | >12 µM | >12 µM | >12 µM |  | 
6 | PD113.1.1: Gossypium hirsutum wild-type defensin SEQ ID NO: 674 with N-terminal alanine, expressed in Pichia pastoris (GPTIVGGRKCKSPSKKFNGMCMNHVNCATVCQTESHEDGKCEGFYRRCICIKPCF; N-terminal alanine added; listed as Gossypium hirsutum) | 6 µM | 6 µM | 4 µM | 12 µM | >12 µM |  | 
